The source of these data is PubChem BioAssay AID1645863 (Buhrlage Lab, Dana-Farber Cancer Institute and Novartis …, 2021).

Structures are written as SMILES. Active and inactive are the calls of the source. No rule for the calls is given here.

In the experiment the target is Ubiquitin carboxyl-terminal hydrolase 10 (Homo sapiens) (UniProt Q14694). The experiment in a line: primary hit verification, biochemical, ubiquitin-specific protease 10 deubiquitylase inhibitors, concentration-effect titration (AID 1645863).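 Also: potency values describe inhibition of USP10 cleavage of a fluorogenic ubiquitin substrate.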 As to conditions: USP10 deubiquitinase enzymatic assay.
Ubiquitin carboxyl-terminal hydrolase 10 (Homo sapiens), sequence (Q14694 whole entry, looked up): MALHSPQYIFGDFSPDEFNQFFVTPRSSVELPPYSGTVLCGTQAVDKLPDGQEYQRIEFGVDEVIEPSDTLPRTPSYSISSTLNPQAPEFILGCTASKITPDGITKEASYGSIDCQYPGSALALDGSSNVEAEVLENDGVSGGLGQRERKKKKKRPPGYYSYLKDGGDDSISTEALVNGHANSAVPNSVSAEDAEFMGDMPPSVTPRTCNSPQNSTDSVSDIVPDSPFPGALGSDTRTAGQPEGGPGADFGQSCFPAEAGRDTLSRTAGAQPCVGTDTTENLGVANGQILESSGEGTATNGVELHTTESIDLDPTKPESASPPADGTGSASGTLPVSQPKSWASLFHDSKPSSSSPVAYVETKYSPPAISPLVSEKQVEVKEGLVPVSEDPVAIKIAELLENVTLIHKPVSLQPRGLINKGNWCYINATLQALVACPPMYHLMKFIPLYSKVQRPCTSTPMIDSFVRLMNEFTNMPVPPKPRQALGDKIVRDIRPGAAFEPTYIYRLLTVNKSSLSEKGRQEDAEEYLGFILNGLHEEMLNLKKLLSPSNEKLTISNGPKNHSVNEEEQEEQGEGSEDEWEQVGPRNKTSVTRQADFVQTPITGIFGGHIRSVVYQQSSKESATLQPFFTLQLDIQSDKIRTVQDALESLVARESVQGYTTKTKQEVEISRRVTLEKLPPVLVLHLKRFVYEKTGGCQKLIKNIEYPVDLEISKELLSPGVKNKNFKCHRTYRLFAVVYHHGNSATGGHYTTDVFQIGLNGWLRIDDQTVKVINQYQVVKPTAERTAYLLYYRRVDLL
Take `CCOc1ccccc1NC(=O)Cn1c(=O)n(CCC(=O)NCCc2ccc(OC)c(OC)c2)c(=O)c2ccccc21`: the IC50 is > 40 µM (inactive).

Take `O=C(NCCc1nc2ccccc2n1Cc1ccccc1F)c1ccc(Cl)cc1`: the 50% inhibitory concentration (IC50) was 24.4 µM. As for `COc1ccc(Cl)cc1NC(=O)Cn1c(=O)n(CCCCC(=O)NCCc2ccccc2)c(=O)c2ccccc21`, the figure is 13.4 µM.

Take `COc1ccccc1NC(=O)c1nc(-c2cn(-c3cccc(F)c3)nn2)no1`: the half-inhibitory concentration (IC50) was 21.1 µM. In the case of `Cc1cc(Nc2cccc(Cl)c2)n2nc(-c3cccnc3)nc2n1`, the IC50 was > 40 µM (inactive). Take `COc1ccc(NC(=O)CC(=O)c2ccc([N+](=O)[O-])cc2)cc1S(=O)(=O)Nc1ccc(Br)cc1`: the half-maximal inhibitory concentration (IC50) was 22.9 µM. The figure for `Cc1nc2c(-c3ccc(Cl)cc3)c[nH]n2c(=O)c1Cc1ccccc1` is > 12.6 µM (inactive); for `CCOc1ccc2cc3c(nc2c1)OC(=O)N(Cc1ccc(OC)cc1)C3` it is 5.74 µM. As for `CCC/C=C\C#CC/C=C\CCCCCCCC(=O)O`, the IC50 was 3.3 µM. With `O=C(c1cccc2ncccc12)N1CCN(c2ccnc3cc(Cl)ccc23)CC1`, the IC50 was > 40 µM (inactive). Consider `COc1ccc(OCCn2c(C3CC(=O)N(c4cccc(C)c4)C3)nc3ccccc32)cc1` (stereo not given), for which the IC50 was 15.2 µM. Turning to `CCn1cc2c(n1)c(=O)n(Cc1ccccc1)c(=O)n2CC(=O)Nc1ccc(C)cc1C`, the IC50 was 12.1 µM. `COc1ccc(-c2ccc(SCC(=O)Nc3ccc(F)cc3)nn2)cc1OC`: the IC50 was > 40 µM (inactive). `O=C(c1cc(S(=O)(=O)Nc2ccc(Cl)cc2)ccc1Cl)N1CCCc2ccccc21`: the IC50 is > 40 µM (inactive). Turning to `COc1cccc(CNc2ccc(-c3nc(-c4ccccc4)no3)nn2)c1`, the IC50 was > 40 µM (inactive). For the compound `COc1ccccc1N(CC(=O)N1c2ccccc2CC1C)S(=O)(=O)c1ccc(F)cc1` (stereo not given), the IC50 was > 40 µM (inactive).

For the compound `O=c1cc(-c2ccc(O)c(O)c2)oc2cc(O)cc(O)c12`, the IC50 was 1.8 µM.

Take `N=C1/C(=C/c2cn(Cc3ccccc3)c3ccccc23)C(=O)N=C2SC(C(F)(F)F)=NN12`: the IC50 is > 40 µM (inactive). `O=C(O)C1C(C(=O)Nc2ccccc2)C2(c3ccccc3)C(=O)C1(c1ccccc1)C(c1ccccc1)=C2c1ccccc1` (stereo not given): the IC50 was 4.25 µM. Take `COc1ccc(CNc2ccc(C(=O)OCc3ccccc3F)cc2S(=O)(=O)Nc2cccc(OC)c2)cc1`: the IC50 was > 40 µM (inactive). `COc1ccc(NC(=O)Cn2cc(C(=O)c3ccc(C)cc3)c(=O)c3ccccc32)cc1`: the IC50 was 30.1 µM.

`Cc1ccc(CNC(=O)c2cccc(N3C(=O)N4CCc5c([nH]c6ccccc56)[C@@]4(C)C3=O)c2)cc1`: the IC50 is > 40 µM (inactive). Consider `CCCCCCCCCC(CCCCCCCCCC(=O)O)O[C@H]1O[C@@H](COC(C)=O)[C@H](O)[C@@H](O)[C@H]1OC(=O)CC(=O)O` (stereo not given in full), for which the IC50 is 29.4 µM. Take `Cc1cc(=O)n(CC(=O)Nc2ccccc2C)c(Nc2ccc(F)cc2)n1`: the half-inhibitory concentration (IC50) is 28.4 µM. `O=C(/C=C/c1cccc([N+](=O)[O-])c1)N1CCc2ccccc21`: the IC50 is > 40 µM (inactive). Regarding `N#Cc1cccnc1N1CCN(C(=O)Nc2cccc3ccccc23)CC1`, the IC50 was > 40 µM (inactive). As for `CCOC(=O)N1CCN(C(=O)c2ccc(NCc3ccc(F)cc3)c(S(=O)(=O)Nc3cccc(C(F)(F)F)c3)c2)CC1`, the figure is 29.8 µM; as for `O=c1[nH]c(C2CCN(S(=O)(=O)c3ccc(S(=O)(=O)N4CCOCC4)cc3)CC2)nc2c1nnn2Cc1ccc(F)cc1`, > 40 µM (inactive); as for `CCOC(=O)c1ccc(NC(=O)Cn2c(=O)n(-c3ccc(CC(=O)NCc4ccco4)cc3)c(=O)c3ccccc32)cc1`, > 40 µM (inactive).

For the compound `Cc1ccc(-c2cc(C(F)F)n3ncc(C(=O)Nc4ccc(O)cc4)c3n2)cc1`, the IC50 was 14.4 µM.

`CCc1cccc(CC)c1NC(=O)COC(=O)c1cc2cccc(OC)c2oc1=O`: the IC50 is > 40 µM (inactive). Take `OC1CCCN(c2ncc(-c3cnccn3)c(-c3cccs3)n2)C1` (stereo not given): the IC50 is > 40 µM (inactive).

For the compound `Cc1ccc(C(=O)c2cn(CC(=O)Nc3ccccc3)c3ccc(C)cc3c2=O)cc1`, the IC50 is > 40 µM (inactive).

Regarding `Cc1cccn2c(=O)c3cc(C#N)c(=O)n(-c4cccc(C(F)(F)F)c4)c3nc12`, the IC50 is > 40 µM (inactive). Regarding `O=S(=O)(Nc1cccc(O)c1)c1ccc2oc3ccc(S(=O)(=O)Nc4cccc(O)c4)cc3c2c1`, the IC50 is 14.4 µM.

Take `O=C(Cn1c(=O)n(-c2ccccc2)c(=O)c2ccc(C(=O)NCc3ccc4c(c3)OCO4)cc21)NCCC1=CCCCC1`: the IC50 is 16.2 µM. With `O=C(Nc1ccccc1)[C@@H]1[C@@H]2C(=O)N(c3ccc([N+](=O)[O-])cc3)C(=O)[C@@H]2[C@H]2c3ccccc3C=CN12`, the IC50 was > 40 µM (inactive). On to `Cc1ccc(S(=O)(=O)NCc2ccc(C(=O)NCCc3ccc(S(N)(=O)=O)cc3)cc2)cc1`, for which the IC50 is > 40 µM (inactive). For `CC(C)c1nnc(NC(=O)C2CC(=O)N(CCc3ccc(F)cc3)C2)s1` (stereo not given), the IC50 is > 40 µM (inactive). For the compound `O=C(NCc1ccco1)c1ccc(Cn2c(=O)c3sccc3n(Cc3cc(=O)n4ccccc4n3)c2=O)cc1`, the IC50 was > 40 µM (inactive). `COc1ccccc1Nc1ncc(C(=O)NCc2ccc(F)cc2)c2ccccc12`: the IC50 was > 40 µM (inactive). The figure for `CCCCOc1ccc(-c2cc3n(c(=N)c2C#N)CCc2cc4c(cc2-3)OCCCO4)cc1OC` is > 40 µM (inactive); for `Cc1c(OCC(=O)NCc2ccccc2Cl)ccc2c3c(c(=O)oc12)CCC3` it is > 40 µM (inactive); for `Cc1ccc(NC(=O)Cn2cc(C(=O)c3ccccc3)c(=O)c3cc(C)ccc32)cc1` it is 23.9 µM. In the case of `O=C(Nc1c2c(nn1-c1ccc([N+](=O)[O-])cc1)CSC2)c1c(F)cccc1F`, the IC50 was > 40 µM (inactive). `CCc1ccc(-n2c(C)cc(/C=C3\C(=N)N4N=CSC4=NC3=O)c2C)cc1`: the IC50 is > 40 µM (inactive). Take `O=C(Cn1cc(C(=O)C(F)(F)F)c2cc(Br)ccc21)N1CCc2ccccc21`: the concentration for half-maximal inhibition (IC50) is 35.6 µM. For `O[C@H]1[C@H](NCc2cccc(C(F)(F)F)c2)[C@@H](c2cncnc2)C[C@H]1O`, the IC50 was > 40 µM (inactive). As for `Cc1cccc(OCCn2c(CCNC(=O)C3CCCCC3)nc3ccccc32)c1`, the figure is 16.3 µM.

On to `Cc1ccc(S(=O)(=O)N2CCC3(CC2)OC(=O)Nc2ccccc23)cc1`, for which the IC50 was > 40 µM (inactive). Consider `COc1ccc(-c2cc(-c3ccccc3)nc(SCC(N)=O)c2C#N)cc1OC`, for which the IC50 is 21.6 µM. For `Cc1ccc(Nc2nc(O)c(CC(=O)Nc3cccc(Cl)c3C)s2)cc1C`, the 50% inhibitory concentration (IC50) was 25.4 µM. `Cc1cccc(NC(=O)Cn2c(=O)n(-c3cc(C)cc(C)c3)c(=O)c3sccc32)c1`: the IC50 was > 40 µM (inactive).

On to `COC(=O)c1ccc2c(=O)n(CCCCCC(=O)NCCc3ccccc3Cl)c(=O)[nH]c2c1`, for which the IC50 is > 40 µM (inactive). `CCN(Cc1ccccc1)C(=O)Cn1ccc2ccn(C)c2c1=O`: the IC50 was > 40 µM (inactive). The figure for `Cc1cc(C)c2nc3c(cc2c1)CN(Cc1ccco1)C(=O)O3` is > 40 µM (inactive). On to `CCOc1ccc(NS(=O)(=O)c2ccc(NC(=O)Nc3ccccc3)cc2)cc1`, for which the IC50 is > 40 µM (inactive). The figure for `Cn1c(=O)[nH]c(=O)c2c1nc(N1CCc3ccccc3C1)n2CCSc1nnnn1-c1ccccc1` is > 40 µM (inactive); for `COc1cc(NC(=O)Cc2ccccc2)ccc1NC(=O)c1cc2ccccc2o1` it is 28.1 µM. For `Cc1ccc(S(=O)(=O)Nc2cccc(Cl)c2)cc1NC(=O)CCC(=O)c1ccc(Cl)cc1`, the IC50 was > 40 µM (inactive). As for `Cc1cc(OCC(=O)Nc2ccc3c(c2)NC(=O)CO3)ccc1Cl`, the figure is 15.5 µM. For `COc1ccc(NC(=O)CC(=O)c2ccc([N+](=O)[O-])cc2)cc1S(=O)(=O)Nc1ccc(Cl)cc1`, the IC50 is 25.8 µM. The figure for `Nc1ncc(-c2ccc(F)cc2)c(C2CCCN(C(=O)c3ccn[nH]3)C2)n1` (stereo not given) is > 40 µM (inactive). In the case of `CCOc1ccc(NC(=O)Cn2c(=O)n(CCCCCC(=O)NCc3ccc(F)cc3)c(=O)c3sccc32)cc1`, the IC50 was 17.7 µM. Take `O=C1CC(O)C(O)c2cccc(O)c21` (stereo not given): the IC50 is > 40 µM (inactive). As for `Cn1c(=O)[nH]c2nncnc2c1=O`, the figure is > 40 µM (inactive); as for `CCC(=O)Nc1nc2cc(NC(=O)Nc3ccccc3Cl)ccc2s1`, > 40 µM (inactive). In the case of `Cc1cc(C)c(NC(=O)Cc2sc(Nc3ccc(C)c(C)c3)nc2O)c(C)c1`, the IC50 is > 40 µM (inactive). Consider `CCCCCCCc1cc(OC(=O)c2c(CCCCCCC)cc(O)cc2O[C@@H]2O[C@H](CO)[C@H](O)[C@H](O)[C@H]2O)cc(O)c1C(=O)O`, for which the IC50 was 5.17 µM. Regarding `CCOc1ccc(S(=O)(=O)Nc2ccc[nH]c2=O)cc1`, the IC50 was > 40 µM (inactive). As for `O=S1(=O)CCN(Cc2cccnc2)c2c(F)nc(N3CCOCC3)c(F)c21`, the figure is > 40 µM (inactive); as for `O=C(NC1CCCCC1)C(c1ccc(F)cc1)N(C(=O)C1COc2ccccc2O1)c1ccc2c(c1)OCO2` (stereo not given), > 40 µM (inactive). As to `O=C(c1cc2occc2c(Nc2ccc(F)cc2)n1)N1CCN(c2ccccc2)CC1`, the IC50 was > 40 µM (inactive). Regarding `O=C(OC1CSc2nc3ccccc3n2C1)c1ccc([N+](=O)[O-])o1` (stereo not given), the IC50 is 22.7 µM. As to `CC(C)=CCC/C(C)=C/COc1ccc(/C=C2\C(=O)N(O)[C@@H](C)C(=O)N2O)cc1`, the IC50 was 14.5 µM. For `O=C(Nc1ccc(F)cc1)Nc1ccccc1OCc1cc(=O)n2ccccc2n1`, the IC50 is 26.3 µM. Regarding `Cc1cc(C)c(O)c(-c2cc(C(=O)Nc3ccccc3Cl)[nH]n2)c1`, the IC50 is > 40 µM (inactive). `CCCCNC(=O)CSc1nnc(-c2cc3ccccc3n2C)o1`: the IC50 is > 40 µM (inactive).

`COc1cc(OC)c(NC(=O)c2cc(-c3ccccn3)n[nH]2)cc1Cl`: the half-maximal inhibitory concentration (IC50) is 28.9 µM. As to `C=C[C@]1(C)CC[C@]2(C)[C@@H](C1)[C@@H](O)C[C@H]1[C@]3(C)CCC[C@@]12OC3=O`, the IC50 is > 40 µM (inactive).
